In assay [1] the target is Histone acetyltransferase GCN5 (Saccharomyces cerevisiae S288c) (UniProt Q03330). In words: Inhibition of Saccharomyces cerevisiae recombinant GCN5 assessed as histone H3 acetylation.
For assay [2], the system named is Toxoplasma gondii. Kind of assay: Inhibition of Toxoplasma gondii in human foreskin fibroblasts relative to DMSO. Format: functional, organism-based.
Assay [3] has as its system Toxoplasma gondii. In words: Inhibition of Toxoplasma gondii in human foreskin fibroblasts at 100 uM relative to DMSO. Format: functional.
For assay [4], the system named is Toxoplasma gondii. In words: Decrease in acetylated histone H3 levels in Toxoplasma gondii tachyzoites after 3 days by immunoblotting. Format: functional, organism-based.
The test system of assay [5] is Toxoplasma gondii. In words: Effect on apicoplasts in Toxoplasma gondii at 200 uM by DAPI staining relative to DMSO. The class given is functional.

SMILES strings stand for the structures. Activity calls are given as the source filed them. The calls are words filed in the database; no cut-off is given here.

Sequence of Histone acetyltransferase GCN5 (Saccharomyces cerevisiae S288c) (Q03330 whole entry): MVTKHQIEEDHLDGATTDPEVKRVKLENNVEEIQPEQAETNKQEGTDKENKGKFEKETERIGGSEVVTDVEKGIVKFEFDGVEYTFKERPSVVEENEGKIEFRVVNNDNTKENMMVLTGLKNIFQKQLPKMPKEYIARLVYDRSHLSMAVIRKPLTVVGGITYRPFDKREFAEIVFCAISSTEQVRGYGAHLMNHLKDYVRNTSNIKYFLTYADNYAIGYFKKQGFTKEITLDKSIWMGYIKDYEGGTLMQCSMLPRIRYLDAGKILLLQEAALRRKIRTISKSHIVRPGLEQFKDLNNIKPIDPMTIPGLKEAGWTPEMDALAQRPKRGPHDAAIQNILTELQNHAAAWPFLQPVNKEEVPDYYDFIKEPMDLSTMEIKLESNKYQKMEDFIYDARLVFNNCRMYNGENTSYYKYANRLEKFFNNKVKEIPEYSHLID

In the case of `C=CC/C=C\C/C=C\CCCCCCCc1cccc(O)c1C(=O)O`, in assay [1], the outcome was Active.
`CCOC(=O)c1cc2ccccc2nc1C`: the Activity result in assay [2] is “Dose-dependent effect”; in assay [5], 52%. In assay [3], this molecule gave an inhibition at 100 µM of 50%. In addition, the result in assay [4] and in assay [1] was inactive.

The values are drawn from ChEMBL document CHEMBL1142079, “Quinoline derivative MC1626, a putative GCN5 histone acetyltransferase (HAT) inhibitor, exhibits HAT-independent activity against Toxoplasma gondii” (2007).
